Experimental data: US20070082880A1 (priority 2005, published 2007)

Target: T1, human PKCθ full length enzyme (Homo sapiens, UniProt Q04759)
T1 construct: human PKCθ full length enzyme (Panvera Catalog No. P2996); purchased Panvera P2996
Assay: PKCθ IMAP Assay
Type: biochemical
Details: average value when one or more samples were tested; ATP 6 uM, PKCθ 1 nM
Experimental: The materials used include the following: human PKCθ full length enzyme (Panvera Catalog No. P2996); substrate peptide: 5FAM-[…]-OH (Molecular Devices, RP7032); ATP (Sigma Cat # A2383); DTT (Pierce, 20291); 5× kinase reaction buffer (Molecular Devices, R7209); 5× binding buffer A (Molecular Devices, R7282), 5× binding buffer B (Molecular Devices, R7209); IMAP Beads (Molecular Devices, R7284); and 384-well plates (Corning Costar, 3710).
The reaction buffer was prepared by diluting the 5× stock reaction buffer and adding DTT to obtain a concentration of 3.0 mM. The binding buffer was prepared by diluting the 5× binding buffer A. A master mix solution was prepared using a 90% dilution of the reaction buffer containing 2×ATP (12 uM) and 2× peptide ([…]). […] The final concentration of compound was 2× and 10% DMSO. DMSO was added to the rest of the master mix to increase the concentration to 10%. 10 ul of the master mix containing 10% DMSO was added to the rest of the wells on the plate except the 2nd column. 20 ul was transferred from the first column to the 2nd column. The compounds were serially diluted in 2:1 ratio starting from the 2nd column. A 2× (2 nM) PKCθ solution was made in the reaction buffer. 10 ul of the PKCθ solution was added to every well to achieve these final concentrations: PKCθ—1 nM; ATP—6 uM; peptide—100 nM; DMSO—5%. Samples were incubated for 25 minutes at room temperature. The binding reagent was prepared by diluting the beads in 1× binding buffer to 800:1. 50 ul of the binding reagent was added to every well and incubated for 20 minutes. FP was measured using Envision2100 (PerkinElmer Life Sciences). Wells with no ATPs and wells with no enzymes were used as controls.

T1 sequence (Q04759 whole entry): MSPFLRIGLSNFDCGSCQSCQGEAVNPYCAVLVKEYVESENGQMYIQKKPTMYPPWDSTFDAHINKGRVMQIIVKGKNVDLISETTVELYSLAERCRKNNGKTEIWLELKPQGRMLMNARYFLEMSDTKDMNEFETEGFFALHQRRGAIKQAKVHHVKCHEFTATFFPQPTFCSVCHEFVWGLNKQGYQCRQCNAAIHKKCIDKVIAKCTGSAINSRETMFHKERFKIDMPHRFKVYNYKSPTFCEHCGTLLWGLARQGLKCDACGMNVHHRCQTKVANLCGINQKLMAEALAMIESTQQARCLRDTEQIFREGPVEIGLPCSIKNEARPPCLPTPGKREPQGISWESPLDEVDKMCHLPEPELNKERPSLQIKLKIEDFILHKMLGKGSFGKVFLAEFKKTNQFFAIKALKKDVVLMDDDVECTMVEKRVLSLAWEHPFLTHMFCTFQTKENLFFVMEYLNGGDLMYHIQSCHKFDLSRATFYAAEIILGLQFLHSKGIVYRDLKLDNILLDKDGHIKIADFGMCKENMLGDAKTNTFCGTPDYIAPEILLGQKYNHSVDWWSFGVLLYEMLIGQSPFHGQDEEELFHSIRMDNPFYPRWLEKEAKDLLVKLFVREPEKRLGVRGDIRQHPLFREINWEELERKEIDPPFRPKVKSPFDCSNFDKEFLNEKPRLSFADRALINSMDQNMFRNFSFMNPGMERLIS

Row | Structure (SMILES) | IC50 [nM]
1 | C=C/C=C/c1cc2c(Nc3ccc4[nH]ccc4c3)c(C#N)cnc2s1 [Compound 270, 2-[(1E)-buta-1,3-dien-1-yl]-4-(1H-indol-5-ylamino)thieno[2,3-b]pyridine-5-carbonitrile] | 201
2 | N#Cc1cnc2sc(/C=C/C(N)=O)cc2c1Nc1ccc2[nH]ccc2c1 [Compound 292, (2E)-3-[5-cyano-4-(1H-indol-5-ylamino)thieno[2,3-b]pyridin-2-yl]acrylamide] | 183
3 | CN(C)CCNC(=O)c1cccc(-c2cc3c(Nc4ccc5[nH]ccc5c4)c(C#N)cnc3s2)c1 [Compound 335, 3-[5-cyano-4-(1H-indol-5-ylamino)thieno[2,3-b]pyridin-2-yl]-N-[2-(dimethylamino)ethyl]benzamide] | 124
4 | CN(C)Cc1ccc2sc(-c3cc4c(Nc5ccc6[nH]ccc6c5)c(C#N)cnc4s3)cc2c1 [Compound 465, 2-{5-[(dimethylamino)methyl]-1-benzothien-2-yl}-4-(1H-indol-5-ylamino)thieno[2,3-b]pyridine-5-carbonitrile] | 49
5 | N#Cc1cnc2sc(C(=O)N3CCCC3)cc2c1Nc1cccc2[nH]ccc12 [Compound 264, 4-(1H-indol-4-ylamino)-2-(pyrrolidin-1-ylcarbonyl)thieno[2,3-b]pyridine-5-carbonitrile] | 669
6 | N#Cc1cnc2sc(-c3cccc(CN4CCCCC4CO)c3)cc2c1Nc1ccc2[nH]ccc2c1 (stereo not drawn) [Compound 182] | 130
7 | CNS(=O)(=O)c1cccc(-c2sc3ncc(C#N)c(Nc4ccc5[nH]ccc5c4C)c3c2C)c1 [Compound 428, 3-{5-cyano-3-methyl-4-[(4-methyl-1H-indol-5-yl)amino]thieno[2,3-b]pyridin-2-yl}-N-methylbenzenesulfonamide] | 60
8 | Cc1c(Nc2c(C#N)cnc3sc(/C=C/C(=O)N4CCCC4)c(C)c23)ccc2[nH]ccc12 [Compound 302, 3-methyl-4-[(4-methyl-1H-indol-5-yl)amino]-2-[(1E)-3-oxo-3-pyrrolidin-1-ylprop-1-en-1-yl]thieno[2,3-b]pyridine-5-carbonitrile] | 4
9 | CN1CCN(C(=O)/C=C/c2cc3c(Nc4ccc5[nH]ccc5c4)c(C#N)cnc3s2)CC1 [Compound 290, 4-(1H-indol-5-ylamino)-2-[(1E)-3-(4-methylpiperazin-1-yl)-3-oxoprop-1-en-1-yl]thieno[2,3-b]pyridine-5-carbonitrile] | 330
10 | Cc1c(Nc2c(C#N)cnc3sc(/C=C/C(=O)OC(C)(C)C)cc23)ccc2[nH]ccc12 [Compound 286, tert-butyl (2E)-3-{5-cyano-4-[(4-methyl-1H-indol-5-yl)amino]thieno[2,3-b]pyridin-2-yl}acrylate] | 314
11 | Cc1c(Nc2c(C#N)cnc3sc(/C=C/C(=O)Nc4ccncc4)cc23)ccc2[nH]ccc12 [Compound 304, (2E)-3-{5-cyano-4-[(4-methyl-1H-indol-5-yl)amino]thieno[2,3-b]pyridin-2-yl}-N-pyridin-4-ylacrylamide] | 43
12 | CN(C)Cc1cccc(-c2cc3c(Nc4cccnc4)c(C#N)cnc3s2)c1 [Compound 326, 2-{3-[(dimethylamino)methyl]phenyl}-4-(pyridin-3-ylamino)thieno[2,3-b]pyridine-5-carbonitrile] | 31000
13 | N#Cc1cnc2sc(-c3cccc(CN4CCOCC4)c3)cc2c1Nc1ccc2[nH]ccc2c1 [Compound 146, 4-(1H-indol-5-ylamino)-2-[3-(morpholin-4-ylmethyl)phenyl]thieno[2,3-b]pyridine-5-carbonitrile] | 550
14 | COCCNC(=O)/C=C/c1cc2c(Nc3ccc4[nH]ccc4c3C)c(C#N)cnc2s1 [Compound 308, (2E)-3-{5-cyano-4-[(4-methyl-1H-indol-5-yl)amino]thieno[2,3-b]pyridin-2-yl}-N-(2-methoxyethyl)acrylamide] | 48

Other lines, results leading:

Row | IC50 [nM] | Structure (SMILES)
15 | 9 | CNS(=O)(=O)c1ccc(-c2cc3c(Nc4ccc5[nH]ccc5c4C)c(C#N)cnc3s2)cc1 [Compound 230, 4-{5-cyano-4-[(4-methyl-1H-indol-5-yl)amino]thieno[2,3-b]pyridin-2-yl}-N-methylbenzenesulfonamide]
16 | 17 | Cc1c(Nc2c(C#N)cnc3sc(-c4cccc(S(=O)(=O)NCCO)c4)cc23)ccc2[nH]ccc12 [Compound 510, 3-{5-cyano-4-[(4-methyl-1H-indol-5-yl)amino]thieno[2,3-b]pyridin-2-yl}-N-(2-hydroxyethyl)benzenesulfonamide]
17 | > 30000 | CCOc1ccc2cc(-c3cc4c(Nc5ccc6[nH]ccc6c5C)c(C#N)cnc4s3)ccc2c1 [Compound 385, 2-(6-ethoxy-2-naphthyl)-4-[(4-methyl-1H-indol-5-yl)amino]thieno[2,3-b]pyridine-5-carbonitrile]
18 | 57 | Cc1c(Nc2c(C#N)cnc3sc(-c4cc5ccccc5s4)cc23)ccc2[nH]ccc12 [Compound 373, 2-(1-benzothien-2-yl)-4-[(4-methyl-1H-indol-5-yl)amino]thieno[2,3-b]pyridine-5-carbonitrile]
19 | 1200 | CS(=O)(=O)Nc1ccc(-c2cc3c(Nc4ccc5[nH]ccc5c4)c(C#N)cnc3s2)cc1 [Compound 235, N-{4-[5-cyano-4-(1H-indol-5-ylamino)thieno[2,3-b]pyridin-2-yl]phenyl}methanesulfonamide]
20 | 151 | Cc1c(Nc2c(C#N)cnc3sc(-c4ccccc4CNCCCO)cc23)ccc2[nH]ccc12 [Compound 469, 2-(2-{[(3-hydroxypropyl)amino]methyl}phenyl)-4-[(4-methyl-1H-indol-5-yl)amino]thieno[2,3-b]pyridine-5-carbonitrile]
21 | 215 | Cc1c(Nc2c(C#N)cnc3sc(-c4ccccc4N)cc23)ccc2[nH]ccc12 [Compound 436, 2-(2-aminophenyl)-4-[(4-methyl-1H-indol-5-yl)amino]thieno[2,3-b]pyridine-5-carbonitrile]
22 | 141 | Cc1c(Nc2c(C#N)cnc3sc(-c4cccc(Br)c4)cc23)ccc2[nH]ccc12 [Compound 377, 2-(3-bromophenyl)-4-[(4-methyl-1H-indol-5-yl)amino]thieno[2,3-b]pyridine-5-carbonitrile]
23 | 16 | Cc1c(Nc2c(C#N)cnc3sc(-c4cnc5ccccc5c4)cc23)ccc2[nH]ccc12 [Compound 380, 4-[(4-methyl-1H-indol-5-yl)amino]-2-quinolin-3-ylthieno[2,3-b]pyridine-5-carbonitrile]
24 | 5 | COc1ccc(CN(C)C)cc1-c1cc2c(Nc3ccc4[nH]ccc4c3C)c(C#N)cnc2s1 [Compound 457, 2-{5-[(dimethylamino)methyl]-2-methoxyphenyl}-4-[(4-methyl-1H-indol-5-yl)amino]thieno[2,3-b]pyridine-5-carbonitrile]
25 | 10 | Cc1c(Nc2c(C#N)cnc3sc(-c4cccc(NCCN(C)C)c4)cc23)ccc2[nH]ccc12 [Compound 394, 2-(3-{[2-(dimethylamino)ethyl]amino}phenyl)-4-[(4-methyl-1H-indol-5-yl)amino]thieno[2,3-b]pyridine-5-carbonitrile]
26 | 10 | Cc1c(Nc2c(C#N)cnc3sc(C4=CCNCC4)cc23)ccc2[nH]ccc12 [Compound 474, 4-[(4-methyl-1H-indol-5-yl)amino]-2-(1,2,3,6-tetrahydropyridin-4-yl)thieno[2,3-b]pyridine-5-carbonitrile]
27 | 437 | CCOc1ccccc1-c1cc2c(Nc3ccc4[nH]ccc4c3C)c(C#N)cnc2s1 [Compound 332, 2-(2-ethoxyphenyl)-4-[(4-methyl-1H-indol-5-yl)amino]thieno[2,3-b]pyridine-5-carbonitrile]
